Results reported in US8119624B2, “Fused phenyl amido heterocyclic compounds” (Pfizer Inc., priority 2006, dated 2012).

Biological target: T1, Full-length glucokinase (beta cell isoform) (Homo sapiens, UniProt P35557)
T1 construct: Full-length glucokinase (beta cell isoform) was His-tagged at N-terminus; His tag (N); made in house
T1 sequence (P35557 1-465): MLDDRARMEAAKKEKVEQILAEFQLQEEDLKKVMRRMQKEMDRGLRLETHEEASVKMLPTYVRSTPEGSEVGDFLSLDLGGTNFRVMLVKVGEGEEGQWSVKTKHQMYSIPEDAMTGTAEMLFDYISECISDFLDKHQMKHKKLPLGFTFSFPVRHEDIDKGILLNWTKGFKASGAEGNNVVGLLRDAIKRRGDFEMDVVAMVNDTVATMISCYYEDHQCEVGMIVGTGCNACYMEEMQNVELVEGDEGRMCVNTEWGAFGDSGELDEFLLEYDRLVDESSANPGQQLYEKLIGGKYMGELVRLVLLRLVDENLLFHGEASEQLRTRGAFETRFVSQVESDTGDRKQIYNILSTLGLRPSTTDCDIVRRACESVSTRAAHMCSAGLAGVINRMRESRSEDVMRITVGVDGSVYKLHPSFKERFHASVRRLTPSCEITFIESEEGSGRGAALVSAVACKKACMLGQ
Test: Glucokinase biochemical assay (PK/LDH-coupled, NADH depletion at 340 nm): % activation, EC50, % max activation
Conditions: 5 mM glucose; for activation at 10 µM: 10 uM compound, % Activation=(Va/Vo−1)×100, read-out: % Activation at 10 uM; for EC50: GK activation, read-out: EC50; for Emax: fitted maximum activation, read-out: % Max Activation
Method in brief: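 Activation expressed as (Va/Vo−1)×100, where initial rates with and without compound come from NADH depletion at 340 nm over 200–900 s. Enzyme is His-tagged human beta-cell GK, full length, run at room temperature in HEPES buffer with 1 mM ATP and 5 mM glucose. DMSO 1%.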

| Structure (SMILES) | activation at 10 µM [%] | EC50 [nM] | Emax [%] |
| --- | --- | --- | --- |
| Cn1ncc(NC(=O)c2cc(OC3CN(S(C)(=O)=O)C3)c3c(c2)OC(C)(C)C3)n1 [Example 194, 4-(1-Methanesulfonyl-azetidin-3-yloxy)-2,2-dimethyl-2,3-dihydro-benzofuran-6-carboxylic acid (2-methyl-2H-[1,2,3]triazol-4-yl)-amide] | 146 | 5000 | 263 |
| CC(=O)N1CC(Oc2cc(C(=O)Nc3cnn(C)n3)cc3c2CC(C)(C)O3)C1 [Example 195, 4-(1-Acetyl-azetidin-3-yloxy)-2,2-dimethyl-2,3-dihydro-benzofuran-6-carboxylic acid (2-methyl-2H-[1,2,3]triazol-4-yl)-amide] | 98.9 | > 10000 |  |
| CC(=O)N1CC(Oc2cc(C(=O)Nc3ccn(C)n3)cc3c2CC(C)(C)O3)C1 [Example 196, 4-(1-Acetyl-azetidin-3-yloxy)-2,2-dimethyl-2,3-dihydro-benzofuran-6-carboxylic acid (1-methyl-1H-pyrazol-3-yl)-amide] | 62 | > 10000 |  |
| Cn1ccc(NC(=O)c2cc(Oc3ccc(C(=O)N4CCC4)c(F)c3)cc3c2CC(C)(C)O3)n1 [Example 197, 6-[4-(Azetidine-1-carbonyl)-3-fluoro-phenoxy]-2,2-dimethyl-2,3-dihydro-benzofuran-4-carboxylic acid (1-methyl-1H-pyrazol-3-yl)-amide] | 77.6 | > 10000 |  |
| Cn1ncc(NC(=O)c2cc(Oc3ccc(S(C)(=O)=O)cc3)cc3c2CC(C)(C)O3)n1 [Example 198, 6-(4-Methanesulfonyl-phenoxy)-2,2-dimethyl-2,3-dihydro-benzofuran-4-carboxylic acid (2-methyl-2H-[1,2,3]triazol-4-yl)-amide] | 51.4 | > 10000 |  |
| Cn1ccc(NC(=O)c2cc(Oc3ccc(S(C)(=O)=O)cc3)cc3c2CC(C)(C)O3)n1 [Example 199, 6-(4-Methanesulfonyl-phenoxy)-2,2-dimethyl-2,3-dihydro-benzofuran-4-carboxylic acid (1-methyl-1H-pyrazol-3-yl)-amide] | 40.3 | > 10000 |  |
| Cn1ccc(NC(=O)c2cc(Oc3ccc(S(C)(=O)=O)cc3)c3c(c2)OC(CO)C3)n1 (stereo not shown) [Example 200, 2-Hydroxymethyl-4-(4-methanesulfonyl-phenoxy)-2,3-dihydro-benzofuran-6-carboxylic acid (1-methyl-1H-pyrazol-3-yl)-amide] | 113 | 2900 | 147 |
| COCC1Cc2c(Oc3ccc(S(C)(=O)=O)cc3)cc(C(=O)Nc3ccn(C)n3)cc2O1 (stereo not shown) [Example 201, 4-(4-Methanesulfonyl-phenoxy)-2-methoxymethyl-2,3-dihydro-benzofuran-6-carboxylic acid (1-methyl-1H-pyrazol-3-yl)-amide] | 107 | 2800 | 137 |
| Cn1ccc(NC(=O)c2cc(Oc3ccc(C(=O)N4CCC4)c(F)c3)c3c(c2)OC(CO)C3)n1 (stereo not shown) [Example 202, 4-[4-(Azetidine-1-carbonyl)-3-fluoro-phenoxy]-2-hydroxymethyl-2,3-dihydro-benzofuran-6-carboxylic acid (1-methyl-1H-pyrazol-3-yl)-amide] | 121 | 360 | 108 |
| Cc1ccc(NC(=O)c2cc(Oc3ccc(C(=O)N4CCC4)c(F)c3)c3c(c2)OC(CO)C3)nc1 (stereo not shown) [Example 203, 4-[4-(Azetidine-1-carbonyl)-3-fluoro-phenoxy]-2-hydroxymethyl-2,3-dihydro-benzofuran-6-carboxylic acid (5-methyl-pyridin-2-yl)-amide] | 82.6 | 810 | 91 |
| COCC1Cc2c(Oc3ccc(C(=O)N4CCC4)c(F)c3)cc(C(=O)Nc3ccn(C)n3)cc2O1 (stereo not shown) [Example 204, 4-[4-(Azetidine-1-carbonyl)-3-fluoro-phenoxy]-2-methoxymethyl-2,3-dihydro-benzofuran-6-carboxylic acid (1-methyl-1H-pyrazol-3-yl)-amide] | 73.9 | 2000 | 94 |
| COCC1Cc2c(Oc3ccc(C(=O)N(C)C)c(F)c3)cc(C(=O)Nc3ccn(C)n3)cc2O1 (stereo not shown) [Example 205, 4-(4-Dimethylcarbamoyl-3-fluoro-phenoxy)-2-methoxymethyl-2,3-dihydro-benzofuran-6-carboxylic acid (1-methyl-1H-pyrazol-3-yl)-amide] | 90.8 | 420 | 94.5 |
| COCC1Cc2c(Oc3ccc(C(=O)N4CCC4)cc3)cc(C(=O)Nc3ccn(C)n3)cc2O1 (stereo not shown) [Example 208, 4-[4-(Azetidine-1-carbonyl)-phenoxy]-2-methoxymethyl-2,3-dihydro-benzofuran-6-carboxylic acid (1-methyl-1H-pyrazol-3-yl)-amide] | 83.9 | 710 | 98 |
| COCC1Cc2c(Oc3ccc(C(=O)N(C)C)cc3)cc(C(=O)Nc3ccn(C)n3)cc2O1 (stereo not shown) [Example 211, 4-(4-Dimethylcarbamoyl-phenoxy)-2-methoxymethyl-2,3-dihydro-benzofuran-6-carboxylic acid (1-methyl-1H-pyrazol-3-yl)-amide] | 83.5 | 1300 | 90 |
| CC(C)Oc1cc(C(=O)Nc2ccn(C)n2)cc2c1CC(COc1ccccc1)O2 (stereo not shown) [Example 214, 4-Isopropoxy-2-phenoxymethyl-2,3-dihydro-benzofuran-6-carboxylic acid (1-methyl-1H-pyrazol-3-yl)-amide] | 12 |  |  |
| CC(C)Oc1cc(C(=O)Nc2ccn(C)n2)cc2c1CC(CO)O2 (stereo not shown) [Example 215, 2-Hydroxymethyl-4-isopropoxy-2,3-dihydro-benzofuran-6-carboxylic acid (1-methyl-1H-pyrazol-3-yl)-amide] | 16.7 |  |  |
| COCC1Cc2c(OC(C)C)cc(C(=O)Nc3ccn(C)n3)cc2O1 (stereo not shown) [Example 216, 4-Isopropoxy-2-methoxymethyl-2,3-dihydro-benzofuran-6-carboxylic acid (1-methyl-1H-pyrazol-3-yl)-amide] | 13 |  |  |
| CCOCC1Cc2c(OC(C)C)cc(C(=O)Nc3ccn(C)n3)cc2O1 (stereo not shown) [Example 217, 2-Ethoxymethyl-4-isopropoxy-2,3-dihydro-benzofuran-6-carboxylic acid (1-methyl-1H-pyrazol-3-yl)-amide] | 5.3 |  |  |
| CC(C)Oc1cc(C(=O)Nc2ccn(C)n2)cc2c1CC(CN(C)C)O2 (stereo not shown) [Example 218, 2-Dimethylaminomethyl-4-isopropoxy-2,3-dihydro-benzofuran-6-carboxylic acid (1-methyl-1H-pyrazol-3-yl)-amide] | 43.1 | > 10000 |  |
| CC(C)Oc1cc(C(=O)Nc2ccn(C)n2)cc2c1CC(CNC1CC1)O2 (stereo not shown) [Example 219, 2-Cyclopropylaminomethyl-4-isopropoxy-2,3-dihydro-benzofuran-6-carboxylic acid (1-methyl-1H-pyrazol-3-yl)-amide] | 8 |  |  |
| CC(C)Oc1cc(C(=O)Nc2ccccn2)cc2c1CC(Cc1ccccc1)O2 (stereo not shown) [Example 220, 2-Benzyl-4-isopropoxy-2,3-dihydro-benzofuran-6-carboxylic acid pyridin-2-ylamide] | 13.8 |  |  |
| CC(C)Oc1cc(C(=O)Nc2ccn(C)n2)cc2c1CC(Cc1ccccc1)O2 (stereo not shown) [Example 221, 2-Benzyl-4-isopropoxy-2,3-dihydro-benzofuran-6-carboxylic acid (1-methyl-1H-pyrazol-3-yl)-amide] | 8.4 |  |  |
